{
  "source": "patent US10881110B2",
  "about": "“Herbicidal compositions comprising isoxazolo[5,4-b]pyridines” (BASF SE, priority 2014, dated 2021)",
  "experiment_in_all_cases": "greenhouse post-emergence herbicidal test",
  "key": {"[1]": {"system": "PANMI", "format": "in vivo, Panicum miliaceum", "conditions": "application rate a.i.: I.1 125 g/ha, alone or as mixture (composition 1.113)", "experimental": "(§1) The culture containers used were plastic pots containing medium loamy sand with approximately 4.6% of humus and 69.9% sand as substrate. The seeds of the test plants were sown separately for each species.\n(§2) For the post-emergence treatment, the test plants were grown to a plant height of from 1 to 15 cm, depending on the plant habit, and only then treated with the active compounds which had been suspended or emulsified in water. To this end, the test plants were either sown directly, and grown in the same containers, or they were first grown separately as seedlings and transplanted into the test containers a few days prior to treatment.\n(§3) Depending on the species, the plants were kept at 10-25° C. and 20-35° C., respectively.\n(§4) The test period extended over 1 to 3 weeks. During this time, the plants were tended and their response to the individual treatments was evaluated 20 days after treatment except mentioned otherwise.\n(§5) Evaluation was carried out using a scale from 0 to 100. 100 means no emergence of the plants, or complete destruction of at least the above-ground parts, and 0 means no damage or normal course of growth.\n(§6) The respective stated components A and B, and, if appropriate, C, were formulated as a 10% by weight strength emulsion concentrate and, with addition of the amount of solvent system, introduced into the spray liquor used for applying the active compound. In the examples, the solvent used was water.\n(§7) In the examples below, using the method of S. R. Colby (1967) “Calculating synergistic and antagonistic responses of herbicide combinations”, Weeds 15, p. 22 ff., the value E, which is expected if the activity of the individual active compounds is only additive, was calculated. E=X+Y−(X·Y/100)"}, "[2]": {"system": "PAPRH", "format": "in vivo, Papaver rhoeas", "set-up": "key: rating on a scale from 0 to 100", "summary_of_the_method": "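Each species was sown separately, grown to a height of 1 to 15 cm and then sprayed with water-dispersed components A, B and where relevant C. Growth conditions were 10-25° C or 20-35° C, and percent damage was recorded at 20 days.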"}, "[3]": {"system": "POLAV", "format": "in vivo, Polygonum aviculare", "set-up": "key: rating on a scale from 0 to 100", "experimental": "as §1, §2, §3, §4, §5, §6, §7"}, "[4]": {"system": "POLPE", "format": "in vivo, Persicaria maculosa", "set-up": "key: scale 0 to 100", "summary_of_the_method": "(§8)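 Herbicidal activity scored on a 0 (no damage) to 100 (plants destroyed) scale, usually 20 days after water-based spraying of 1–15 cm plants grown in loamy sand at 10-25 °C or 20-35 °C depending on species. Components were applied from 10% emulsion concentrates; Colby's E=X+Y−(X·Y/100) gives the additive expectation.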"}, "[5]": {"system": "SASKR", "format": "in vivo, Salsola kali", "set-up": "key: scale 0 to 100", "summary_of_the_method": "as §8"}, "[6]": {"system": "SETVI", "format": "in vivo, Setaria viridis", "conditions": "a.i. g/ha: I.1 20.8, B.192 62.5, 20 days after treatment", "experimental": "as §1, §2, §3, §4\nEvaluation was carried out using a scale from 0 to 100. […]\nIn the examples below, using the method of S. R. Colby (1967) “Calculating synergistic and antagonistic responses of herbicide combinations”, Weeds 15, p. 22 ff., the value E, which is expected if the activity of the individual active compounds is only additive, was calculated. […]"}, "[7]": {"system": "PHACA", "format": "in vivo", "experimental": "as §1, §2, §3, §4, §5, §6, §7"}, "[8]": {"conditions": "6 days after treatment, g/ha a.i.: I.1 31.25, naptalam 200, mixture 31.25+200"}, "[9]": {"conditions": "6 days after treatment, g/ha a.i.: I.1 62.5, B.96 140, mixture 62.5+140"}, "[10]": {"conditions": "6 days after treatment, g/ha a.i.: I.1 62.5, naptalam 50, mixture 62.5+50"}, "[11]": {"conditions": "6 days after treatment, g/ha a.i.: I.1 62.5, naptalam 200, mixture 62.5+200"}},
  "note": "“And” between values parts separate entries of the source, which are not always exact repeats. Equal values may be shown once.",
  "data": [
    {"smiles": "O=C(O)c1cc(C2CC2)nc2onc(C3CC3)c12", "note": "[I.1]", "values": [
      {"measurement": "herbicidal activity against PANMI, found", "setting": "[1]; B.113 (glyphosate) 33.75 g/ha", "value": 60},
      {"measurement": "herbicidal activity against PANMI, found", "setting": "[1]; B.113 (glyphosate) 135 g/ha", "value": 60},
      {"measurement": "herbicidal activity against PAPRH found", "setting": "[2]; 62.5 g/ha a.i.", "value": 50},
      {"measurement": "herbicidal activity against PAPRH found", "setting": "[2]; I.1 15.62 g/ha, B.103 15 g/ha a.i.", "value": 30},
      {"measurement": "herbicidal activity against PAPRH found", "setting": "[2]; I.1 15.62 g/ha, B.88 2 g/ha a.i.", "value": 70},
      {"measurement": "herbicidal activity against PAPRH found", "setting": "[2]; I.1 31.25 g/ha, B.103 15 g/ha a.i.", "value": 30},
      {"measurement": "herbicidal activity against PAPRH found", "setting": "[2]; I.1 31.25 g/ha, B.88 1 g/ha a.i.", "value": 75},
      {"measurement": "herbicidal activity against PAPRH found", "setting": "[2]; I.1 31.25 g/ha, B.88 2 g/ha a.i.", "value": 75},
      {"measurement": "herbicidal activity against PAPRH found", "setting": "[2]; I.1 31.25 g/ha, B.95 1 g/ha a.i.", "value": 75},
      {"measurement": "herbicidal activity against PAPRH found", "setting": "[2]; I.1 62.5 g/ha, B.57 2 g/ha a.i.", "value": 75},
      {"measurement": "herbicidal activity against PAPRH found", "setting": "[2]; I.1 62.5 g/ha, B.88 1 g/ha a.i.", "value": 75},
      {"measurement": "herbicidal activity against PAPRH found", "setting": "[2]; I.1 62.5 g/ha, B.88 2 g/ha a.i.", "value": 75},
      {"measurement": "herbicidal activity against PAPRH found", "setting": "[2]; I.1 62.5 g/ha, B.95 1 g/ha a.i.", "value": 75},
      {"measurement": "herbicidal activity against PAPRH found", "setting": "[2]; I.1 alone 31.25 g/ha a.i.", "value": 70},
      {"measurement": "herbicidal activity against PAPRH found", "setting": "[2]; application rate a.i.: I.1 62.5 g/ha, B.40 (imazethapyr) 7.5 g/ha, alone or as mixture (composition 1.40)", "value": 65},
      {"measurement": "herbicidal activity against PAPRH found", "setting": "[2]; application rate a.i.: I.1 62.5 g/ha, B.87 (carfentrazone-ethyl) 1.75 g/ha, alone or as mixture (composition 1.87)", "value": 85},
      {"measurement": "herbicidal activity against PAPRH found", "setting": "[2]; applied alone at 31.25 g/ha a.i.", "value": 65},
      {"measurement": "herbicidal activity against POLAV found", "setting": "[3]; 62.5 g/ha a.i.", "value": 65},
      {"measurement": "herbicidal activity against POLAV found", "setting": "[3]; 125 g/ha a.i.", "value": 65},
      {"measurement": "herbicidal activity against POLAV found", "setting": "[3]; 6 days after treatment, g/ha a.i.: I.1 31.25, naptalam 50, mixture 31.25+50", "value": 70},
      {"measurement": "herbicidal activity against POLAV found", "setting": "[3]; [8]", "value": 70},
      {"measurement": "herbicidal activity against POLAV found", "setting": "[3]; 6 days after treatment, g/ha a.i.: I.1 62.5, B.96 70, mixture 62.5+70", "value": 70},
      {"measurement": "herbicidal activity against POLAV found", "setting": "[3]; [9]", "value": 70},
      {"measurement": "herbicidal activity against POLAV found", "setting": "[3]; [10]", "value": 70},
      {"measurement": "herbicidal activity against POLAV found", "setting": "[3]; 6 days after treatment, g/ha a.i.: I.1 62.5, naptalam 100, mixture 62.5+100", "value": 70},
      {"measurement": "herbicidal activity against POLAV found", "setting": "[3]; [11]", "value": 70},
      {"measurement": "herbicidal activity against POLAV found", "setting": "[3]; a.i. g/ha: I.1 15.6, B.190 62.5, 20 days after treatment", "value": 45, "unit": "%"},
      {"measurement": "herbicidal activity against POLAV found", "setting": "[3]; a.i. g/ha: I.1 31.25, bentazon Na 125, 20 days after treatment", "value": 80, "unit": "%"},
      {"measurement": "herbicidal activity against POLPE found", "setting": "[4]; 31.25 g/ha a.i.", "value": "45 and 70"},
      {"measurement": "herbicidal activity against POLPE found", "setting": "[4]; 6 days after treatment, g/ha a.i.: I.1 31.25, B.96 35, mixture 31.25+35", "value": 10},
      {"measurement": "herbicidal activity against POLPE found", "setting": "[4]; application rate a.i.: I.1 31.25 g/ha, B.139 (pyroxasulfone) 12.5 g/ha, alone or as mixture (composition 1.139)", "value": 30},
      {"measurement": "herbicidal activity against SASKAR found", "setting": "[5]; 31.25 g/ha a.i.", "value": 60},
      {"measurement": "herbicidal activity against SASKR found", "setting": "[5]; 31.25 g/ha a.i.", "value": 20},
      {"measurement": "herbicidal activity against SASKR found", "setting": "[5]; [8]", "value": 65},
      {"measurement": "herbicidal activity against SASKR found", "setting": "[5]; [9]", "value": 65},
      {"measurement": "herbicidal activity against SASKR found", "setting": "[5]; [10]", "value": 65},
      {"measurement": "herbicidal activity against SASKR found", "setting": "[5]; [11]", "value": 65},
      {"measurement": "herbicidal activity against SASKR found", "setting": "[5]; application rate a.i.: I.1 31.25 g/ha, B.84 (paraquat-dichloride) 17.5 g/ha, alone or as mixture (composition 1.84)", "value": 10},
      {"measurement": "herbicidal activity against SETVI found", "setting": "[6]", "value": 25, "unit": "%"},
      {"measurement": "herbicidal activity against PHACA found", "setting": "[7]; a.i. g/ha: I.1 31.25, B.67 125, 20 days after treatment", "value": 0, "unit": "%"},
      {"measurement": "herbicidal activity against PHACA found", "setting": "[7]; a.i. g/ha: I.1 62.5, B.67 125, 20 days after treatment", "value": 35, "unit": "%"}
    ]}
  ]
}
